Results reported in PubChem BioAssay AID2060895 (Molecular Pharmacology Branch, DTP, NCI, 2025).
pIC50: −log10 of the molar value.

Test system: PDC 899932-113-R3-J6 complex spheroid viability
Experiment: Anticancer human tumor 899932-113-R3-J6-PDC patient-derived melanoma cell line growth inhibition [RAS]
Details: for viability, T/C: stronger effect = lower value; for IC50: curve of compound
Method in brief: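 Agents were tested in combination matrices in half-log decrements from a top concentration at or near clinical Cmax (10 microM if undetermined). Targets were multi-cell spheroids of tumour lines plus HUVEC and MSC stromal cells.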

[1] = curve of first compound, second compound 0.000949 µM
[2] = curve of first compound, second compound 0.003 µM
[3] = curve of first compound, second compound 0.00949 µM
[4] = curve of first compound, second compound 0.03 µM
[5] = curve of first compound, second compound 0.0949 µM
[6] = curve of first compound, second compound 0.3 µM
[7] = second compound 0.000949 µM, first compound 0.00316 µM
[8] = second compound 0.000949 µM, first compound 0.01 µM
[9] = second compound 0.000949 µM, first compound 0.0316 µM
[10] = second compound 0.000949 µM, first compound 0.1 µM
[11] = second compound 0.000949 µM, first compound 0.316 µM
[12] = second compound 0.000949 µM, first compound 1 µM
[13] = second compound 0.003 µM, first compound 0.00316 µM
[14] = second compound 0.003 µM, first compound 0.01 µM
[15] = second compound 0.003 µM, first compound 0.0316 µM
[16] = second compound 0.003 µM, first compound 0.1 µM
[17] = second compound 0.003 µM, first compound 0.316 µM
[18] = second compound 0.003 µM, first compound 1 µM
[19] = second compound 0.00949 µM, first compound 0.00316 µM
[20] = second compound 0.00949 µM, first compound 0.01 µM
[21] = second compound 0.00949 µM, first compound 0.0316 µM
[22] = second compound 0.00949 µM, first compound 0.1 µM
[23] = second compound 0.00949 µM, first compound 0.316 µM
[24] = second compound 0.00949 µM, first compound 1 µM
[25] = second compound 0.03 µM, first compound 0.00316 µM
[26] = second compound 0.03 µM, first compound 0.01 µM
[27] = second compound 0.03 µM, first compound 0.0316 µM
[28] = second compound 0.03 µM, first compound 0.1 µM
[29] = second compound 0.03 µM, first compound 0.316 µM
[30] = second compound 0.03 µM, first compound 1 µM
[31] = second compound 0.0949 µM, first compound 0.00316 µM
[32] = second compound 0.0949 µM, first compound 0.01 µM
[33] = second compound 0.0949 µM, first compound 0.0316 µM
[34] = second compound 0.0949 µM, first compound 0.1 µM
[35] = second compound 0.0949 µM, first compound 0.316 µM
[36] = second compound 0.0949 µM, first compound 1 µM
[37] = second compound 0.3 µM, first compound 0.00316 µM
[38] = second compound 0.3 µM, first compound 0.01 µM
[39] = second compound 0.3 µM, first compound 0.0316 µM
[40] = second compound 0.3 µM, first compound 0.1 µM
[41] = second compound 0.3 µM, first compound 0.316 µM
[42] = second compound 0.3 µM, first compound 1 µM
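Throughout, for viability, T/C: spheroids exposed to agents for seven days before readout; 100% = DMSO vehicle control wells.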

CCN1CCN(Cc2ccc(Nc3ncc(F)c(-c4cc(F)c5nc(C)n(C(C)C)c5c4)n3)nc2)CC1 + CCn1c(-c2cc(N3CCN(C)CC3)cnc2C(C)OC)c2c3cc(ccc31)-c1csc(n1)CC(NC(=O)C1CC1C)C(=O)N1CCCC(N1)C(=O)OCC(C)(C)C2
pIC50 [1]: 6.66 | pIC50 [2]: > 8.50 | pIC50 [3]: > 8.50 | pIC50 [4]: > 8.50 | pIC50 [5]: > 8.50 | pIC50 [6]: > 8.50 | viability, T/C [7]: 80.5% | viability, T/C [8]: 75.5% | viability, T/C [9]: 75.2% | viability, T/C [10]: 63.3% | viability, T/C [11]: 43.7% | viability, T/C [12]: 18.3% | viability, T/C [13]: 38.1% | viability, T/C [14]: 39.2% | viability, T/C [15]: 33.3% | viability, T/C [16]: 30.1% | viability, T/C [17]: 23.8% | viability, T/C [18]: 10.2% | viability, T/C [19]: 4.63% | viability, T/C [20]: 4.32% | viability, T/C [21]: 4.31% | viability, T/C [22]: 3.66% | viability, T/C [23]: 5.16% | viability, T/C [24]: 6.09% | viability, T/C [25]: 3.02% | viability, T/C [26]: 2.66% | viability, T/C [27]: 2.79% | viability, T/C [28]: 2.48% | viability, T/C [29]: 3.21% | viability, T/C [30]: 2.94% | viability, T/C [31]: 2.31% | viability, T/C [32]: 2.1% | viability, T/C [33]: 2.15% | viability, T/C [34]: 2.33% | viability, T/C [35]: 2.24% | viability, T/C [36]: 2.47% | viability, T/C [37]: 1.97% | viability, T/C [38]: 2.12% | viability, T/C [39]: 2.2% | viability, T/C [40]: 2.05% | viability, T/C [41]: 1.76% | viability, T/C [42]: 2.01%

C=CC(=O)N1CCN(c2nc(OCC3CCCN3C)nc3c(F)c(-c4nc(N)cc(C)c4C(F)(F)F)c(Cl)cc23)C(C)C1 (stereo not given) + C#Cc1c(F)ccc2cc(O)cc(-c3ncc4c(N5CC6CCC(C5)N6)nc(OCC56CCCN5CC(F)C6)nc4c3F)c12
pIC50 (curve of first compound, second compound 0.0316 µM): < 6.00 | pIC50 (curve of first compound, second compound 0.1 µM): < 6.00 | pIC50 (curve of first compound, second compound 0.316 µM): < 6.00 | pIC50 (curve of first compound, second compound 1 µM): < 6.00 | pIC50 (curve of first compound, second compound 3.16 µM): < 6.00 | pIC50 (curve of first compound, second compound 10 µM): < 6.00 | viability, T/C (second compound 0.0316 µM, first compound 0.00316 µM): 116% | viability, T/C (second compound 0.0316 µM, first compound 0.01 µM): 107% | viability, T/C (second compound 0.0316 µM, first compound 0.0316 µM): 101% | viability, T/C (second compound 0.0316 µM, first compound 0.1 µM): 108% | viability, T/C (second compound 0.0316 µM, first compound 0.316 µM): 110% | viability, T/C (second compound 0.0316 µM, first compound 1 µM): 104% | viability, T/C (second compound 0.1 µM, first compound 0.00316 µM): 112% | viability, T/C (second compound 0.1 µM, first compound 0.01 µM): 106% | viability, T/C (second compound 0.1 µM, first compound 0.0316 µM): 105% | viability, T/C (second compound 0.1 µM, first compound 0.1 µM): 117% | viability, T/C (second compound 0.1 µM, first compound 0.316 µM): 111% | viability, T/C (second compound 0.1 µM, first compound 1 µM): 106% | viability, T/C (second compound 0.316 µM, first compound 0.00316 µM): 112% | viability, T/C (second compound 0.316 µM, first compound 0.01 µM): 115% | viability, T/C (second compound 0.316 µM, first compound 0.0316 µM): 107% | viability, T/C (second compound 0.316 µM, first compound 0.1 µM): 108% | viability, T/C (second compound 0.316 µM, first compound 0.316 µM): 117% | viability, T/C (second compound 0.316 µM, first compound 1 µM): 112% | viability, T/C (second compound 1 µM, first compound 0.00316 µM): 120% | viability, T/C (second compound 1 µM, first compound 0.01 µM): 108% | viability, T/C (second compound 1 µM, first compound 0.0316 µM): 115% | viability, T/C (second compound 1 µM, first compound 0.1 µM): 112% | viability, T/C (second compound 1 µM, first compound 0.316 µM): 125% | viability, T/C (second compound 1 µM, first compound 1 µM): 102% | viability, T/C (second compound 3.16 µM, first compound 0.00316 µM): 129% | viability, T/C (second compound 3.16 µM, first compound 0.01 µM): 113% | viability, T/C (second compound 3.16 µM, first compound 0.0316 µM): 120% | viability, T/C (second compound 3.16 µM, first compound 0.1 µM): 133% | viability, T/C (second compound 3.16 µM, first compound 0.316 µM): 124% | viability, T/C (second compound 3.16 µM, first compound 1 µM): 110% | viability, T/C (second compound 10 µM, first compound 0.00316 µM): 118% | viability, T/C (second compound 10 µM, first compound 0.01 µM): 115% | viability, T/C (second compound 10 µM, first compound 0.0316 µM): 122% | viability, T/C (second compound 10 µM, first compound 0.1 µM): 125% | viability, T/C (second compound 10 µM, first compound 0.316 µM): 110% | viability, T/C (second compound 10 µM, first compound 1 µM): 102%

C[C@@H](NC(=O)c1ncnc(N)c1Cl)c1ncc(C(=O)Nc2cc(C(F)(F)F)c(Cl)cn2)s1
viability, T/C (compound 0.0316 µM): 126% [middle of 4 runs] | viability, T/C (compound 0.1 µM): 132% [middle of 4 runs] | viability, T/C (compound 3.16 µM): 105% [middle of 4 runs] | viability, T/C (compound 10 µM): 32.6% [middle of 4 runs] | IC50: 7.59 µM [middle of 4 runs]

CCn1c(-c2cccnc2C(C)OC)c2c3cc(ccc31)N1CCOC(CC(NC(=O)C(C(C)C)N(C)C(=O)C3(F)CCN(C(=O)C#CC(C)(C)N(C)C)CC3)C(=O)N3CCCC(N3)C(=O)OCC(C)(C)C2)C1 (stereo not given)
viability, T/C (compound 0.000949 µM): 110% [middle of 8 runs] | viability, T/C (compound 0.003 µM): 108% [middle of 8 runs] | viability, T/C (compound 0.00949 µM): 105% [middle of 8 runs] | viability, T/C (compound 0.03 µM): 106% [middle of 8 runs] | viability, T/C (compound 0.0949 µM): 98.7% [middle of 8 runs] | viability, T/C (compound 0.3 µM): 92.5% [middle of 8 runs] | pIC50 (compound alone, run of 08/20/2024): < 6.52

O=C(c1ccc(F)c(F)c1Nc1ccc(I)cc1F)N1CC(O)([C@@H]2CCCCN2)C1 + CCn1c(-c2cc(N3CCN(C)CC3)cnc2C(C)OC)c2c3cc(ccc31)-c1csc(n1)CC(NC(=O)C1CC1C)C(=O)N1CCCC(N1)C(=O)OCC(C)(C)C2
pIC50 [1]: > 8.50 | pIC50 [2]: > 8.50 | pIC50 [3]: > 8.50 | pIC50 [4]: > 8.50 | pIC50 [5]: > 8.50 | pIC50 [6]: > 8.50 | viability, T/C [7]: 39.5% | viability, T/C [8]: 11.1% | viability, T/C [9]: 2.22% | viability, T/C [10]: 1.79% | viability, T/C [11]: 0.22% | viability, T/C [12]: 0.2% | viability, T/C [13]: 13.7% | viability, T/C [14]: 2.9% | viability, T/C [15]: 2.47% | viability, T/C [16]: 1.41% | viability, T/C [17]: 0.18% | viability, T/C [18]: 0.12% | viability, T/C [19]: 3.2% | viability, T/C [20]: 2.49% | viability, T/C [21]: 1.79% | viability, T/C [22]: 0.56% | viability, T/C [23]: 0.06% | viability, T/C [24]: 0.13% | viability, T/C [25]: 2.9% | viability, T/C [26]: 2.26% | viability, T/C [27]: 1.17% | viability, T/C [28]: 0.14% | viability, T/C [29]: 0.07% | viability, T/C [30]: 0.11% | viability, T/C [31]: 1.79% | viability, T/C [32]: 1.48% | viability, T/C [33]: 0.57% | viability, T/C [34]: 0.07% | viability, T/C [35]: 0.1% | viability, T/C [36]: 0.13% | viability, T/C [37]: 1.39% | viability, T/C [38]: 1.61% | viability, T/C [39]: 0.46% | viability, T/C [40]: 0.12% | viability, T/C [41]: 0.17% | viability, T/C [42]: 0.17%

CC1(C)CCC(Nc2ncc(C(F)(F)F)c(-c3c[nH]c4c(P(C)(C)=O)c(C#N)ccc34)n2)CN1 (stereo not given)
viability, T/C (compound 0.000949 µM): 98.3% [middle of 4 runs] | viability, T/C (compound 0.003 µM): 75.5% [middle of 4 runs] | viability, T/C (compound 0.00949 µM): 53.9% [middle of 4 runs] | viability, T/C (compound 0.03 µM): 44.4% [middle of 4 runs] | viability, T/C (compound 0.0949 µM): 18.4% [middle of 4 runs] | viability, T/C (compound 0.3 µM): 12.9% [middle of 4 runs] | IC50: 15 nM [middle of 4 runs]
